Experiment: anaesthetic effect (onset and duration) of gel composition administered through the urethra
Type: in vivo
Conditions: gel compositions comprising the anaesthetic

| Compound | duration of action | onset of action |
| --- | --- | --- |
| CCCN1CCCC[C@H]1C(=O)Nc1c(C)cccc1C [ropivacaine] | 2 to 10 h | 10 to 20 min |
| CCCCN1CCCCC1C(=O)Nc1c(C)cccc1C (centres unmarked) [bupivacaine] | up to 7 hours | 7 to 10 min |
| CCN(CC)CC(=O)Nc1c(C)cccc1C [lidocaine] | 0.25 to 0.333 h | – |

— patent publication US12290512B2, “Gel composition with an anaesthetic effect of short and long term duration” (priority 2018, dated 2025)
